Like-named read-outs stand apart in the source and are kept apart here.
Tested on: S. aureus, P. aeruginosa, and E. coli
Assay: Preservative challenge test in anionic protein shampoo inoculated with mixed bacteria; plate counts and Kull synergism value
Type: cell-based

Structure (SMILES): CC(=O)c1c([O-])cc(C)oc1=O.O.[Na+] [Sodium Dehydroacetate Monohydrate, sodium dehydroacetate monohydrate]
- S. aureus, P. aeruginosa, and E. coli (cfu/g) Day 0 (anionic protein shampoo, single preservative, printed ">0.5%" by weight, Day 0): 3.0 × 10^6 cfu/g
- S. aureus, P. aeruginosa, and E. coli (cfu/g) Day 14 (anionic protein shampoo, single preservative, printed ">0.5%" by weight, Day 14): 4.0 × 10^3 cfu/g
- Qc, concentration of sodium dehydroacetate monohydrate alone required to yield 100% retardation of the bacteria (percent by weight, plate count <10 cfu/g after 14 days): >0.50%

Structure (SMILES): O=C([O-])c1ccccc1O.[Na+] [Sodium Salicylate, sodium salicylate]
- Qa, concentration of sodium salicylate alone required to yield 100% retardation of the bacteria: >1.00%
- S. aureus, P. aeruginosa, and E. coli (cfu/g) Day 0: 3.0 × 10^6 cfu/g
- S. aureus, P. aeruginosa, and E. coli (cfu/g) Day 14: 5.0 × 10^2 cfu/g

Reference: US6946427B2, “Preservative blends containing iodine containing compounds” (Lonza Inc., priority 2001, dated 2005)
